{
  "source": "patent EP0250264A1",
  "about": "“Irreversible dopamine-Beta-hydroxylase inhibitors” (SMITHKLINE BECKMAN CORPORATION, priority 1986, dated 1987)",
  "key": {"[1]": {"target": "T1, DBH (Homo sapiens, UniProt P09172)", "T1 sequence (P09172 1-617)": "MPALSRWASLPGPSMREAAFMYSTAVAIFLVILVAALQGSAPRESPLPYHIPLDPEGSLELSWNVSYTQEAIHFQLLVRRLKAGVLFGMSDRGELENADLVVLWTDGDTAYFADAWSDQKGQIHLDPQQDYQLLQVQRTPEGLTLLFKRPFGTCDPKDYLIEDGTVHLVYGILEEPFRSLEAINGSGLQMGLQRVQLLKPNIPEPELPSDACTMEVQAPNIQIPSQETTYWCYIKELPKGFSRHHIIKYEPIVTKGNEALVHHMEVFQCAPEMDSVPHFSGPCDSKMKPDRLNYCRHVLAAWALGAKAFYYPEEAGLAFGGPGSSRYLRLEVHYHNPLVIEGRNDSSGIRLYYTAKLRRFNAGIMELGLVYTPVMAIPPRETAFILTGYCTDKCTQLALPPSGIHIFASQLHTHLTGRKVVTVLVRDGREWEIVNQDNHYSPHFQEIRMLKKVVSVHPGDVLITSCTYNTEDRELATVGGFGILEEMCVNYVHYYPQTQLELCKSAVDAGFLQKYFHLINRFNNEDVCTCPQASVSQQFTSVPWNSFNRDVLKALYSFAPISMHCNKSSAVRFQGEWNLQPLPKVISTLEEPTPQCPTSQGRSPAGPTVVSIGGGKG", "assay": "DBH inhibition assay, conversion of tyramine to octopamine (enzyme inhibition kinetic study)", "type": "biochemical", "conditions": "enzyme incubated for up to 50 minutes with 10, 20, 40, or 80 µM concentrations", "experimental": "DBH activity was assayed by a standard procedure for measuring the conversion of tyramine to octopamine in the presence of DBH. J.J. Pisano, et al., Biochim. Biophy. Acta, 43, 566-68 (1960). Octopamine was assayed following sodium periodate oxidation to p-hydroxybenzaldehyde by measuring spectrophotometric absorbance at 330 nm.\nTo measure DBH inhibition, the enzyme was incubated for up to 50 minutes with 10, 20, 40, or 80 µM concentrations of ß-ethynyl-4-hydroxybenzeneethanamine."}, "[2]": {"target": "T1, DBH", "conditions": "cited from earlier work"}, "[3]": {"test_system": "Spontaneously hypertensive rats", "assay": "Mean arterial blood pressure in spontaneously hypertensive rats, monitored with indwelling tail artery cannulae", "type": "in vivo", "conditions": "100 mg/kg intraperitoneally; for blood pressure reduction remaining at 260 minutes: 260 minutes after administration, b38 compares to vehicle-treated controls", "experimental": "Spontaneously hypertensive rats were dosed with a suspension or solution of ß-ethynylbenzeneethanamine- methane sulfonate at a dose of 100 mg/kg intraperitoneally, and mean arterial blood pressure was monitored for 260 minutes using indwelling cannulae positioned in the tail arteries.\nBlood pressure also was monitored in spontaneously hypertensive rats given 100 mg/kg intraperitoneally B-ethynyl-3-hydroxybenzeneethanamine hydrochloride."}},
  "data": [
    {"molecule": "C#CC(CN)c1ccc(O)cc1.Cl", "note": "(stereo not shown) [ß-ethynyl-4-hydroxybenzeneethanamine, ß-Ethynyl-4-Hydroxybenzeneethanamine Hydrochloride]", "values": [
      {"measurement": "DBH inhibition", "setting": "[1]", "value": "concentration- dependent DBH inhibition"},
      {"measurement": "enzyme inhibition, dependence on time", "setting": "[1]", "value": "time-dependent"}
    ]},
    {"molecule": "phenylpicolinic acid", "values": [
      {"measurement": "inhibitory activity relative to fusaric acid", "setting": "[2]", "value": "twice the inhibitory activity of fusaric acid"}
    ]},
    {"molecule": "C#CC(CN)c1ccccc1.CS(=O)(=O)O", "note": "(stereo not shown) [ß-ethynylbenzeneethanamine- methane sulfonate]", "values": [
      {"measurement": "blood pressure reduction remaining at 260 minutes", "setting": "[3]", "value": "approximately twenty"},
      {"measurement": "reductions in blood pressure", "setting": "[3]; twenty to forty minutes following administration", "value": "approximately twenty"}
    ]},
    {"molecule": "C#CC(CN)c1cccc(O)c1", "note": "(stereo not shown) [ß-Ethynyl-3-Hydrpxybenzeneethanamine]", "values": [
      {"measurement": "blood pressure reduction remaining at 260 minutes", "setting": "[3]", "value": "approximately ten"},
      {"measurement": "blood pressure reductions", "setting": "[3]; forty minutes following compound administration", "value": "thirty"}
    ]}
  ]
}
